Experimental data reported in patent publication US10131663B2, “Chemical compounds” (AstraZeneca AB, priority 2016, dated 2018).
Converted amounts (≈) assume the structure as drawn. Like-named read-outs stand apart in the source and are kept apart here.

How the values were obtained:
[1] = biological target: recombinant human Estrogen Receptor alpha ligand binding domain (ER alpha-LBD (GST)) (Homo sapiens (Human), UniProt P03372); assay: ERα binding assay (LanthaScreen TR-FRET competition)
Method: The ability of compounds to bind to isolated Estrogen Receptor Alpha Ligand binding domain (ER alpha-LBD (GST)) was assessed in competition assays using a LanthaScreen™ Time-Resolved Fluorescence Resonance Energy Transfer (TR-FRET) detection end-point. […] The assay principle is that ER alpha-LBD (GST) is added to a fluorescent ligand to form a receptor/fluorophore complex. A terbium-labelled anti-GST antibody (Product code PV3551) is used to indirectly label the receptor by binding to its GST tag, and competitive binding is detected by a test compound's ability to displace the fluorescent ligand, resulting in a loss of TR-FRET signal between the Tb-anti-GST antibody and the tracer. The assay was performed as follows with all reagent additions carried out using the Beckman Coulter BioRAPTR FRD microfluidic workstation: • 1. Acoustic dispense 120 nL of the test compound into a black low volume 384 well assay plates. • 2. Prepare 1×ER alpha-LBD/Tb-antiGST Ab in ES2 screening buffer and incubate for 15 minutes. • 3. Dispense 6 μL of the 1×[…]/Tb-anti-GST Ab reagent into each well of the assay plate followed by 6 μL of Fluorophore reagent into each well of the assay plate • 4. Cover the assay plate to protect the reagents from light and evaporation, and incubate at room temperature for 4 hours. • 5.
TR-FRET dose response data obtained with each compound was exported into a suitable software package (such as Origin or Genedata) to perform curve fitting analysis. Competitive ER alpha binding was expressed as an IC50 value.

[2] = biological target: Estrogen Receptor (ERα) in MCF-7 cells (Homo sapiens (Human), UniProt P03372); assay: MCF-7 ER down-regulation assay (immuno-fluorescence); format: cell-based
Chain of Estrogen Receptor (ERα) in MCF-7 cells (P03372 whole entry): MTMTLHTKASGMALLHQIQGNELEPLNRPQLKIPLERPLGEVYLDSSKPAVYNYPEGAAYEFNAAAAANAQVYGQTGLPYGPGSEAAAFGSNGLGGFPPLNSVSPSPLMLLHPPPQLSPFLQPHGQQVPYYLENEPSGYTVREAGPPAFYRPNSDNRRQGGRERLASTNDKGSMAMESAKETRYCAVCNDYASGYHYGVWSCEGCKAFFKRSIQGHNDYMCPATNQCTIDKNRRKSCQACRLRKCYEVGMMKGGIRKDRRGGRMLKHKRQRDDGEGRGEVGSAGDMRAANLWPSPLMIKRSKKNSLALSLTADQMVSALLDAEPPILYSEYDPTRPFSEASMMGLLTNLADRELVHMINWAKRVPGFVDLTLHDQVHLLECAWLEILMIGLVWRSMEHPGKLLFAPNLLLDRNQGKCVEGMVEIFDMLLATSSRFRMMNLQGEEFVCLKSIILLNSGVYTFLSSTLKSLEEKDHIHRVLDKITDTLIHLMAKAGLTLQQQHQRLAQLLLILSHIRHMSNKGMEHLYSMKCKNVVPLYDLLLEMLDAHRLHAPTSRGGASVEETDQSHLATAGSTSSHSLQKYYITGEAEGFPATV
Method: The Echo uses acoustic technology to perform direct microplate-to-microplate transfers of DMSO compound solutions to assay plates. […] Cells were fixed at room temperature for 20 mins before being washed two times with 250 μL PBS/Proclin (PBS with a Biocide preservative) using a BioTek platewasher, 40 μL of PBS/Proclin was then added to all wells and the plates stored at 4° C. The fixing method described above was carried out on the Integrated Echo 2 workcell. Immunostaining was performed using an automated AutoElisa workcell. […] The plates were incubated overnight at 4° C. […] The mean total intensity was normalized for cell number giving the total intensity per cell. The data was exported into a suitable software package (such as Origin) to perform curve fitting analysis.

[3] = log D (shake flask, 1-octanol/aqueous buffer); format: physicochemical
Text: The lipophilicity of a drug is an important physical property which may influence many biological and metabolic properties of a compound, for example the absorption, distribution, metabolism, excretion and toxicity profiles of a compound. The distribution coefficient between 1-octanol and aqueous buffer, Log DO/W, at pH 7.4, is the most commonly used measurement of the lipophilicity of a compound. The current method for measurement of Log DO/W is based on the traditional shake flask technique, but with the modification of measuring compounds in mixtures of ten at a time using UPLC with quantitative mass spectrometry (MS) as a method to measure the relative octanol and aqueous concentrations. […] An additional QC sample Caffeine, with low Log D, are used and randomly placed in all runs. The method has been thoroughly validated against the previous shake flask methodologies.

[4] = Thermodynamic solubility (shake-flask); format: physicochemical; conditions: aqueous phosphate buffer, 25 °C, pH 7.4, aqueous buffer, thermodynamic from solid, aqueous phosphate buffer pH 7.4, 24 hours
Method: The thermodynamic solubility of a research compound is measured under standard conditions. It is a shake-flask approach that uses 10 mM DMSO solutions which are supplied from the Compound Managements liquid store and is a high throughput method. The dried compounds are equilibrated in an aqueous phosphate buffer (pH 7.4) for 24 hours at 25° C., the portion with the dissolved compound is then separated from the remains. The solutions are analyzed and quantified using UPLC/MS/MS, QC-samples are incorporated in each assay-run to ensure the quality of the assay.

[5] = Human plasma protein binding (equilibrium dialysis); format: in vitro ADME; conditions: dialysis 18 hours
Method: The automated equilibrium dialysis assay in human plasma uses the RED (Rapid Equilibrium Dialysis) Device and sample handling. The assay generally runs over two to three days including delivery of results. After dialysis for 18 hours, plasma and buffer samples are prepared for analysis by liquid chromatography and mass spectrometry. Samples are generally tested in singlicates and quantified by LC/MSMS by using a 7-point calibration curve in plasma. The compounds are pooled together in plasma pools up to 10 compounds. Three reference compounds are used in each run, Propranolol, Metoprolol and Warfarin. Warfarin is used as a control in each pool and Propranolol and Metoprolol are placed randomly in each run. An in-house Excel macro is used for preparation of files for the robot and the mass spectrometer and is also used for the calculations of fraction unbound (fu %) in plasma.

[6] = biological target: hERG potassium channel (Homo sapiens (Human), UniProt Q12809); assay: hERG binding assay (automated patch clamp, CHO cells); format: cell-based; conditions: CHO cell line, Nanion Syncropatch 384PE
Chain of hERG potassium channel (Q12809 whole entry): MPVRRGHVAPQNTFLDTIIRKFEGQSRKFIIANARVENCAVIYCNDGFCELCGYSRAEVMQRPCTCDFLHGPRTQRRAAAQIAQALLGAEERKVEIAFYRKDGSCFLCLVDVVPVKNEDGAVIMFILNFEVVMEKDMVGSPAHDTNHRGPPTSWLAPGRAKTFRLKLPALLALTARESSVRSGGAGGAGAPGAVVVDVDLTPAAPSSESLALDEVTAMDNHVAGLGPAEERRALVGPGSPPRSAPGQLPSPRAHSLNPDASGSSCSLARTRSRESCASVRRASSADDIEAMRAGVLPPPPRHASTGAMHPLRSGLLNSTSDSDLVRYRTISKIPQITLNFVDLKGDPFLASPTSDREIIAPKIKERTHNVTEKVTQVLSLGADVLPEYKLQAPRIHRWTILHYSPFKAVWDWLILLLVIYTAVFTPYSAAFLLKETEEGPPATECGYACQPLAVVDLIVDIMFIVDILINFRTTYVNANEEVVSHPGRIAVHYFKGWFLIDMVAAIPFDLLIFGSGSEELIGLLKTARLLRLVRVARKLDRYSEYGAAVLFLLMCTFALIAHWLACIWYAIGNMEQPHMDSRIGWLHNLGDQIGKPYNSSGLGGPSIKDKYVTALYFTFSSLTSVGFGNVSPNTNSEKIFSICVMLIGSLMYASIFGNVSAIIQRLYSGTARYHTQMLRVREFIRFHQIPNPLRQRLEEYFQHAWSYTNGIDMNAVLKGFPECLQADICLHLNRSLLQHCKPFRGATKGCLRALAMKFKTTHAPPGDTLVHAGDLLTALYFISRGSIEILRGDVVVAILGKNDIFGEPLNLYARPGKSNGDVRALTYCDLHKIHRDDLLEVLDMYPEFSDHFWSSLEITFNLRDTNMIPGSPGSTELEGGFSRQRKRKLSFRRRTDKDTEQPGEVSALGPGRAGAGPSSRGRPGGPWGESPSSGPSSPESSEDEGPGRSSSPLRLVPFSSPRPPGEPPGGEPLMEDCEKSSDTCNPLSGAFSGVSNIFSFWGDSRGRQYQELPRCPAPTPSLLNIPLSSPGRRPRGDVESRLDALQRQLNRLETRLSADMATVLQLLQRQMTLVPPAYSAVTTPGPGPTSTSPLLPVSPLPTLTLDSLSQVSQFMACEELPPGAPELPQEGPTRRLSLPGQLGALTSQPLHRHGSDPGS
Method: Reagent preparations include: • 1.
Cell preparations: • 1. If using cell culture; cells to be incubated at 30° C. for approximately 4-6 days prior to being used. Day of assay lift cells using accutase and re-suspend in 20 ml cell buffer to a density of 0.8 to 1e6 cells/ml. • 2. If using assay ready cryovials; rapidly thaw two cryovials at 37° C. and slowly pipette into 23 ml external solution • 3.
All compounds were acoustically dispensed in quadruplicate using a Labcyte Echo. […] Fill 384 well medium resistance 4 hole chips with 40 μl external buffer and perfuse internal buffer to the underside of plate. • 2. Dispense 20 μl of cells into each well of the chip followed by 20 μl of seal enhancer. • 3. Remove 40 μl of reagent from each well to the wash station, leaving a residual volume of 40 μl • 4. Dispense 40 μl of reference buffer with a removal step of 40 μl after 3 min, repeat this step. • 5.
hERG-mediated currents were elicited using a voltage step protocol consisting of acontinuous holding voltage of −80 mV, with a 500 ms step to 60 mV followed by a 500 ms step to −40 mV every 15 seconds. hERG current magnitude was measured automatically from the leak-subtracted traces by the Nanion software by taking the peak of the hERG “tail” current at −40 mV every 15 seconds and taking the last three of these responses for each concentration to generate the concentration-effect curve.
Calculation of results is performed using APC package within Genedata. For the routine normalization of well data with Neutral and Inhibitor control well groups as reference, GeneData Assay Analyzer uses the following equation to normalize the signal values to the desired signal range:
[formula] • x is the measured raw signal value of a well • is the median of the measured signal values for the Central Reference (Neutral) wells on a plate • is the median of the measured signal values for the Scale Reference (Inhibitor) wells on a plate • CR is the desired median normalized value for the Central Reference (Neutral) • SR is the desired median normalized value for the Scale Reference (Inhibitor)

[7] = Human Caco-2 bidirectional permeability A to B and B to A; format: in vitro ADME; conditions: for Papp at 2 h: Caco-2, 2 hours, pH 7.4; for efflux ratio at 2 h: Caco-2, pH 7.4
Method: An automated assay was used to determine the bidirectional permeability (efflux and uptake) of compounds in Caco-2 cells carried out over 2 hours at pH 7.4.
The efflux ratio (ER) can be determined using the following equation: ER=Papp(B-A)/Papp(A-B) Where Papp (B-A) indicates the apparent permeability coefficient in basolateral to apical direction, and Papp (A-B) indicates the apparent permeability coefficient in apical to basolateral direction. Human Caco-2 Passive Permeability A to B Papp

[8] = pH 7.4, 1-octanol/aqueous buffer
[9] = TR-FRET, displacement of Fluormone ES2
[10] = 1-octanol/aqueous buffer, pH 7.4, pH 7.4, 1-octanol/aqueous buffer

Chain of recombinant human Estrogen Receptor alpha ligand binding domain (ER alpha-LBD (GST)) (P03372 307-554): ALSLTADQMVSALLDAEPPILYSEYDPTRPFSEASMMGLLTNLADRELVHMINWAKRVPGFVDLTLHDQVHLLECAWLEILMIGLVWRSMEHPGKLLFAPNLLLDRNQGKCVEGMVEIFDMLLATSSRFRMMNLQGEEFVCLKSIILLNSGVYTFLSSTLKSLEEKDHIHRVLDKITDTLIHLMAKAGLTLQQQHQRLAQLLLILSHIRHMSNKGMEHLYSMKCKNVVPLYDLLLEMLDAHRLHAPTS

Compound	IC50 [1]	IC50 [2]	logD [3, 8]	solubility at 24 h [4]	Human plasma protein binding (% free) [5]	IC50 [6]	Papp at 2 h [7]	efflux ratio at 2 h [7]	IC50 [1, 9]	logD [3, 10]
COc1cc(NC2CN(CCCF)C2)ccc1[C@@H]1c2ccc3[nH]ncc3c2C[C@@H](C)N1CC(F)(F)CO [Example 60, 2,2-difluoro-3-((6S,8R)-6-(4-((1-(3-fluoropropyl)azetidin-3-yl)amino)-2-methoxyphenyl)-8-methyl-3,6,8,9-tetrahydro-7H-pyrazolo[4,3-f]isoquinolin-7-yl)propan-1-ol]	4.7 nM	0.19 nM	2.5	593 µM (≈ 307 µg/mL)	23 % free	11000 nM	0.7 ×10⁻⁶ cm/s	34	–	–
C[C@@H]1Cc2c(ccc3[nH]nc(F)c23)[C@@H](c2cnc(NC3CN(CCCF)C3)cn2)N1CC(F)(F)F [Example 38, 5-((6S,8R)-1-fluoro-8-methyl-7-(2,2,2-trifluoroethyl)-6,7,8,9-tetrahydro-3H-pyrazolo[4,3-f]isoquinolin-6-yl)-N-(1-(3-fluoropropyl)azetidin-3-yl)pyrazin-2-amine]	–	0.19 nM	–	794 µM (≈ 393 µg/mL)	13 % free	18000 nM	–	–	0.69 nM	3.1
COc1cc(NC2CN(CCCF)C2)ccc1[C@]1(C)c2ccc3[nH]ncc3c2C[C@@H](C)N1CC(F)F [Example 45, N-(4-((6S,8R)-7-(2,2-difluoroethyl)-6,8-dimethyl-6,7,8,9-tetrahydro-3H-pyrazolo[4,3-f]isoquinolin-6-yl)-3-methoxyphenyl)-1-(3-fluoropropyl)azetidin-3-amine]	–	0.3 nM	–	172 µM (≈ 86.3 µg/mL)	6.2 % free	4200 nM	–	–	1.6 nM	3.9
C[C@@H]1Cc2c(ccc3[nH]nc(F)c23)[C@@H](c2ccc(NC3CN(CCCF)C3)c(F)n2)N1CC(F)(F)CO [Example 62, 2,2-difluoro-3-((6S,8R)-1-fluoro-6-(6-fluoro-5-((1-(3-fluoropropyl)azetidin-3-yl)amino)pyridin-2-yl)-8-methyl-3,6,8,9-tetrahydro-7H-pyrazolo[4,3-f]isoquinolin-7-yl)propan-1-ol]	–	0.13 nM	–	784 µM (≈ 411 µg/mL)	19 % free	> 40000 nM	–	–	1 nM	2.8
C[C@@H]1Cc2c(ccc3[nH]ncc23)[C@@H](c2ccc(NC3CN(CCCF)C3)c(F)n2)N1CC(F)F [Example 47, 6-((6S,8R)-7-(2,2-difluoroethyl)-8-methyl-6,7,8,9-tetrahydro-3H-pyrazolo[4,3-f]isoquinolin-6-yl)-2-fluoro-N-(1-(3-fluoropropyl)azetidin-3-yl)pyridin-3-amine]	–	0.41 nM	–	> 1000 µM	–	–	18 ×10⁻⁶ cm/s	1.1	1.2 nM	2.6
C[C@@H]1Cc2c(ccc3[nH]ncc23)[C@@H](c2ncc(NC3CN(CCCF)C3)cc2F)N1CC(F)(F)CO [Example 31, 2,2-Difluoro-3-((6S,8R)-6-(3-fluoro-5-((1-(3-fluoropropyl)azetidin-3-yl)amino)pyridin-2-yl)-8-methyl-3,6,8,9-tetrahydro-7H-pyrazolo[4,3-f]isoquinolin-7-yl)propan-1-ol]	–	–	–	> 942 µM	44 % free	–	0.9 ×10⁻⁶ cm/s	–	–	2
CC1(C)Cc2c(ccc3[nH]ncc23)[C@@H](c2ccc(NC3CN(CCCF)C3)cn2)N1CC(F)F [Example 73, (S)-6-(7-(2,2-difluoroethyl)-8,8-dimethyl-6,7,8,9-tetrahydro-3H-pyrazolo[4,3-f]isoquinolin-6-yl)-N-(1-(3-fluoropropyl)azetidin-3-yl)pyridin-3-amine]	–	0.77 nM	3	925 µM (≈ 437 µg/mL)	22 % free	12000 nM	–	–	3.4 nM	–
COc1cc(N(C)C2CN(CCCF)C2)ccc1[C@@H]1c2ccc3[nH]ncc3c2C[C@@H](C)N1CC1(F)CC1 [Example 52, N-(4-((6S,8R)-7-((1-fluorocyclopropyl)methyl)-8-methyl-6,7,8,9-tetrahydro-3H-pyrazolo[4,3-f]isoquinolin-6-yl)-3-methoxyphenyl)-1-(3-fluoropropyl)-N-methylazetidin-3-amine]	–	0.21 nM	–	864 µM (≈ 440 µg/mL)	19 % free	2000 nM	–	–	11 nM	3
